Common to all, as to type: physicochemical
The nature of series [1]: Stability study: drug assay by HPLC and PXRD before and after storage at 25° C./75% RH. The conditions noted are these: storage 25° C./75% RH; for % Difference (Day 0-Day 30): Day 0 vs Day 30. How it is done: (§1) The mobile phase consisted of a mixture of methanol and water (65:35, v/v). A 30 μL aliquot of each sample solution was injected onto the column with a flow rate of 1 mL/min.
The samples before and after the storage were collected for PXRD analysis.

Series [2] is described as follows: Particle size distribution measurement by laser diffraction. The settings on record: sieved below 63 μm, n = 3; for Span: (D90-D10)/D50. How it is done: The particle size and size distribution of the powders was determined using laser diffraction equipment, Mastersizer 3000 (Malvern Instruments Ltd, Worcestershire, UK) with Aero S dry powder disperser. […] The particle size distribution was calculated from the light scattering pattern using Mie theory. Particle size at 10% (D10), 50% (D50), 90% (D90) of the volume distribution were calculated automatically using the Mastersizer 3000 software […]. Span was calculated as (D90-D10)/D50. All the samples were measured in triplicate.

Series [3] can be described thus: In-vitro drug release study for nasal delivery in pH 5.5 simulated nasal fluid. The settings on record: for IDR ratio of DEX cocrystals to DEX: pH 5.5 SNF, estimated by ratio of the slope with sphere assumption; for release in SNF relative to raw DEX (fold faster) / dissolution relative to raw DEX (fold faster): pH 5.5 simulated nasal fluid; for release in SNF relative to raw DEX (fold faster): at 120 min, particle size below 63 μm; for dissolution relative to raw DEX (fold faster): time point not stated. On the procedure: as §1
The solution was stirred at 50 rpm on a magnetic stirrer. The dissolution medium and temperature were selected to mimic the physiological condition in the nasal cavity^35, 36. At designated times of 5, 10, 15, 20, 30, 45, 60, 90, and 120 min, 1 mL of the dissolution medium was withdrawn and replaced with an equal volume of fresh medium. The sample solution was filtered through 0.45 μm nylon syringe filters and assayed for drug content by HPLC. The intrinsic dissolution rate (IDR) is determined by the following equation: IDR=(dm/dt)max/A, where (dm/dt)max is the slope of the initial linear region of the cumulative dissolution curve until 10% of drug is dissolved, and A is the specific surface area of the dissolution sample. The following assumptions were made: (i) spherical particles, (ii) constant particle size, and (iii) constant number of particles during the initial phase of the dissolution experiment under sink condition. With the assumptions, the particle size distribution data collected by laser diffractometry is used for the particle surface area (SAparticle) calculation. The total number of particles (n) subject to dissolution is calculated by Vbulk/Vparticle, where Vparticle is the volume of each primary particle, and Vbulk is the volume of compound added to the dissolution medium. The total surface area of all particles added to the dissolution medium is thus calculated through nSAparticle. Finally, the specific surface area (A, m^2/g) defined as the total surface area of a material per unit of mass could be obtained.

The nature of series [4]: In-vitro aerosol performance evaluation with Next Generation Impactor. The conditions noted are these: NGI; for FPF: 90 L/min, particles <5 μm vs recovered dose. How it is done: The spray dryer is equipped with a Buchi B-296 Dehumidifier and B-295 Inert Loop and a spray nozzle tip diameter of 0.7 mm with nitrogen as the atomization gas. The formulations were prepared according to the processing parameters listed in Table 6, above, with a rate of aspirations fixed at 100% (approximately 35 m^3/h), resulting in an outlet temperature of about 44° C.
A thin layer of silicon grease (Slipicone; DC Products, Waverley, VIC, Australia) coated onto the impactor stages minimizes particle bounce. […] Precise amounts of methanol were used for rinsing DEX and RES in all stages. The solutions were subsequently filtered using a 0.45 μm nylon syringe filters and the solutions assayed by HPLC. The recovered dose, fine particle fraction (FPF), mass median aerodynamic diameter (MMAD), and geometric standard deviation (GSD) were calculated. The FPF is the mass fraction of the particles <5 μm with respect to the recovered dose. The recovered dose was defined as the sum of powder mass assayed on all the parts.

The mark [5] stands for this setting: spray-dried 1:1 from methanol, flow rate 90 L/min.

`C[C@@H]1C[C@H]2[C@@H]3CCC4=CC(=O)C=C[C@]4(C)[C@@]3(F)[C@@H](O)C[C@]2(C)[C@@]1(O)C(=O)CO` [DEX, 9-fluoro-11β,17,21-trihydroxy-16α-methylpregna-1,4-diene-3,20-dione, reference compound]: in series [1] (Day 0), the “% of DEX Remaining (n = 3)” value is listed as 98.77 ± 2.97%. Also, in series [1], the “% Difference (Day 0-Day 30)” value is reported as 4.27 ± 5.14%. The “% of DEX Remaining (n = 3)” value in series [1] (Day 7) is 97.23 ± 4.27%. The “% of DEX Remaining (n = 3)” value in series [1] (Day 30) was 94.50 ± 3.00%. Moreover, in series [2], the “Volumetric size D10” value is 0.93 ± 0.16 μm, the “Volumetric size D50” value is listed as 1.52 ± 0.50 μm and the Span turned out to be 3.15 ± 0.46.

Turning to `CC1CC2C3CCC4=CC(=O)C=CC4(C)C3(F)C(O)CC2(C)C1(O)C(=O)CO.Oc1ccccc1O` (centres unmarked) [DEX-CAT], the “% of DEX Remaining (n = 3)” value in series [1] (Day 0) stood at 97.83 ± 2.32%. In addition, the “% Difference (Day 0-Day 30)” value in series [1] turned out to be 2.38 ± 5.49%. The “% of DEX Remaining (n = 3)” value in series [1] (Day 7) stood at 96.73 ± 4.72%. Further, the “% of DEX Remaining (n = 3)” value in series [1] (Day 30) was 95.45 ± 3.35%. In addition, in series [3], the “IDR ratio of DEX cocrystals to DEX” value is listed as 76.86, the “release in SNF relative to raw DEX (fold faster)” value is 2.4 fold and the “dissolution relative to raw DEX (fold faster)” value is 3 fold. In series [2], the “Volumetric size D10” value was 8.49 ± 1.76 μm, the “Volumetric size D50” value is given as 24.87 ± 6.75 μm, the “Volumetric size D90” value was determined as 49.27 ± 6.42 μm and the Span was 5.14 ± 0.28.

As for `CC1CC2C3CCC4=CC(=O)C=CC4(C)C3(F)C(O)CC2(C)C1(O)C(=O)CO.Oc1cccc(O)c1` (centres unmarked) [DEX-RES], the “% of DEX Remaining (n = 3)” value in series [1] (Day 0) worked out at 99.65 ± 2.58%. Besides, the “% Difference (Day 0-Day 30)” value in series [1] turned out to be 4.50 ± 4.07%. For the same molecule, in series [1] (Day 7), the “% of DEX Remaining (n = 3)” value stood at 97.18 ± 3.87%. Moreover, the “% of DEX Remaining (n = 3)” value in series [1] (Day 30) is 95.15 ± 3.17%. In addition, in series [3], the “IDR ratio of DEX cocrystals to DEX” value is 48.29, the “release in SNF relative to raw DEX (fold faster)” value is given as 2.4 fold and the “dissolution relative to raw DEX (fold faster)” value was 3 fold. Moreover, in series [2], the “Volumetric size D10” value turned out to be 4.46 ± 1.93 μm, the “Volumetric size D50” value was 12.0 ± 0.42 μm, the “Volumetric size D90” value was 35.03 ± 8.92 μm and the Span amounted to 7.69 ± 0.93. The molecule further returned an FPF in series [4] (spray-dried 1:1 from methanol) of 35.43 % w/w. The same molecule returned an FPF in series [4] (spray-dried 1:1 from methanol, listed as spray dried cocrystal formulation) of 35.43±4.97 % w/w. In series [4] (setting [5]), this molecule had a GSD of 2.30 μm and an MMAD of 2.96 μm. The same molecule displayed an MMAD in series [4] (spray-dried 1:1 from methanol, flow rate 90 L/min, listed as spray dried cocrystal formulation) of 2.96±0.49 μm. The “aerosolized powders deposited on stages 3-6” value in series [4] (spray-dried, aerodynamic diameters 3.61 to 0.76 μm) is on record as 30.26%.

The values above are taken from patent publication US20230382944A1, “NOVEL COCRYSTALS OF DEXAMETHASONE” (Versitech Limited, priority 2022, published 2023).
